Source: ChEMBL document CHEMBL1145304 (Bioorg Med Chem Lett, 2006)
pIC50: −log10 of the molar value.

Assays:
[1] = molecular target: Sodium-dependent serotonin transporter (Homo sapiens, UniProt P31645); format: cell-based, HEK293
[2] = molecular target: Sodium-dependent noradrenaline transporter (Homo sapiens, UniProt P23975)
Description: Inhibition of [3H]NA reuptake at NA transporter in HEK293 cells

[3] = molecular target: Sodium-dependent dopamine transporter (Homo sapiens, UniProt Q01959)
Sequence of Sodium-dependent dopamine transporter (Q01959 whole entry): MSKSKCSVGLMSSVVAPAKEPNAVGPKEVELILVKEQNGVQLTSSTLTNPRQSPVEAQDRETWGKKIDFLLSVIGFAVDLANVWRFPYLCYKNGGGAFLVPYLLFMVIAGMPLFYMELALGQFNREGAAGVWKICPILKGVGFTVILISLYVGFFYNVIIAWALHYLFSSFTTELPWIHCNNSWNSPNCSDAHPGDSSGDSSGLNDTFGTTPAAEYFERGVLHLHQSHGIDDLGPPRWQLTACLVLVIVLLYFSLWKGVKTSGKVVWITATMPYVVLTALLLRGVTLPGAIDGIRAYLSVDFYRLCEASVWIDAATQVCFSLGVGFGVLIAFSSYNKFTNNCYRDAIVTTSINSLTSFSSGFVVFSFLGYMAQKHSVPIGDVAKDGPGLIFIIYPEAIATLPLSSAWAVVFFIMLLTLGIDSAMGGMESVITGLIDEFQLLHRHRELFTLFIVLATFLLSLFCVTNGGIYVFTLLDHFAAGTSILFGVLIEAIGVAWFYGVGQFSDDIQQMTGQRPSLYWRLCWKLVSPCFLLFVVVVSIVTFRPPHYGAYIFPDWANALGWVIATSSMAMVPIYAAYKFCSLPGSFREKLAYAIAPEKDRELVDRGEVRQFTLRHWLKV
Description: Inhibition of [3H]DA reuptake at DA transporter in HEK293 cells

Sequence of Sodium-dependent serotonin transporter (P31645 whole entry): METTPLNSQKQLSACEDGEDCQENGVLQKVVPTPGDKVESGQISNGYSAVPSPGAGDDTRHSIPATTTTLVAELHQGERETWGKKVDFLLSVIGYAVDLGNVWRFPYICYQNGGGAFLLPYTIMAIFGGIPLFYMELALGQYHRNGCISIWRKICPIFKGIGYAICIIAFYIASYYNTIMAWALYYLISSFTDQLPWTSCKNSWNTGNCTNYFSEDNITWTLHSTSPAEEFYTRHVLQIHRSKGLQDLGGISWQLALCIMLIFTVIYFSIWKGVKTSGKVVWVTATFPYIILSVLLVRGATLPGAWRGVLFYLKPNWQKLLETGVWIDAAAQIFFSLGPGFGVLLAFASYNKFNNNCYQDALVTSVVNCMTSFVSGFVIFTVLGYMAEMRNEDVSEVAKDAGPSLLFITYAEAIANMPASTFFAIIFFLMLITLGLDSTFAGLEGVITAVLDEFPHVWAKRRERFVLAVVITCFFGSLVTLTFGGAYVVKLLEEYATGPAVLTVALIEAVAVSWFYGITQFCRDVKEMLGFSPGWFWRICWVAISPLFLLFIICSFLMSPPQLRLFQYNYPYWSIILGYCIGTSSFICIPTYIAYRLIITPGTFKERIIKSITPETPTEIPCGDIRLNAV
Sequence of Sodium-dependent noradrenaline transporter (P23975 whole entry): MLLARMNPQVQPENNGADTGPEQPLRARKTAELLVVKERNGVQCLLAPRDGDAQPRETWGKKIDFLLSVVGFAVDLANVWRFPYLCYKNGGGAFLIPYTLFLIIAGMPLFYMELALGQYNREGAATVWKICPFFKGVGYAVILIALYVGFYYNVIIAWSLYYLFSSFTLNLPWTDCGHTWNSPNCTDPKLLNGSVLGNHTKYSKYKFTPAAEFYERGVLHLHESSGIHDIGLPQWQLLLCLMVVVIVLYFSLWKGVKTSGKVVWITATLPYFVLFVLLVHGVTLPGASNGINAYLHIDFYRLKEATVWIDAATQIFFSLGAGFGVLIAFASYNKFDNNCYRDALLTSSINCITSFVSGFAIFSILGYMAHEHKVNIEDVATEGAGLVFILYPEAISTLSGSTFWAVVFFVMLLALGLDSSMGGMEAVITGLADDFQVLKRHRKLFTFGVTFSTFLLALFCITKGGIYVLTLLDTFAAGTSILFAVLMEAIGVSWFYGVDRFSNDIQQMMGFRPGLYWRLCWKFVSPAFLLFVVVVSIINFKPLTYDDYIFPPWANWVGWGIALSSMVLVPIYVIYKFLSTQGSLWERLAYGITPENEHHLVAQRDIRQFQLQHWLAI

| SMILES | pIC50 [1] | pIC50 [2] | pIC50 [3] |
| --- | --- | --- | --- |
| c1ccc(CCC(c2ccccc2)N2CCNCC2)cc1 (centres undefined) | 7.64 | < 6.40 | – |
| CCOc1ccccc1CC(c1nccs1)N1CCNCC1 (centres undefined) | 7.41 | 6.47 | – |
| Clc1ccccc1CC(c1ccccc1)N1CCCNCC1 (centres undefined) | 7.38 | 7.12 | – |
| c1ccc(C(Cc2cccc3ccccc23)N2CCNCC2)cc1 (centres undefined) | 7.92 | < 6.40 | – |
| CCOc1ccccc1CC(c1cccnc1)N1CCNCC1 (centres undefined) | 7.34 | 7.82 | < 5.40 |
| CCOc1ccccc1CC(c1cncs1)N1CCNCC1 (centres undefined) | 7.40 | 7.68 | – |
| CCOc1ccccc1CC(c1ccccc1)N1CCCNCC1 (centres undefined) | 6.52 | 8.06 | – |
| c1ccc(C(Cc2ccncc2)N2CCNCC2)cc1 (centres undefined) | 7.42 | < 6.40 | – |
| c1ccc(C(Cc2ccccn2)N2CCNCC2)cc1 (centres undefined) | 6.64 | < 6.40 | – |
| Clc1ccccc1CC(c1cncs1)N1CCNCC1 (centres undefined) | 7.92 | 6.92 | – |
| Clc1ccccc1CC(c1cccnc1)N1CCNCC1 (centres undefined) | 7.85 | 7.12 | 5.04 |
| c1ccc(CCC(Cc2ccccc2)N2CCNCC2)cc1 (centres undefined) | 7.64 | 7.32 | 6.40 |
| c1ccc(C(Cc2ccc3ccccc3c2)N2CCNCC2)cc1 (centres undefined) | 7.77 | < 6.40 | – |
